Laboratory results as given in patent publication US20240360194A1, “New Peptides as Potent and Selective GIP Receptor Agonists” (Sanofi, priority 2021, published 2024).
Numbered stars: 1 amine (or outer) side, 2 acyl side, 3 side chain; on linkers, the order of the positions; unused ones are H or OH. Square brackets hold non-standard residues; d marks the D form. Side chains are listed from the residue outwards. Peptide text beside a SMILES is read from it. * marks the point of attachment. C18 diacid = O=C(O)CCCCCCCCCCCCCCCCC(=O)*; γGlu = O=C(O)[C@H](CCC(=O)[*:2])N[*:1]; AEEA = NCCOCCOCC(=O)O; Aib = CC(C)(N)C(=O)O

Assay: Pharmacokinetic evaluation in minipigs
Type: in vivo
Settings: female, Göttingen, minipig, plasma
Experimental: Compounds were administered in a suitable buffer system, e.g. PBS buffer solution at pH7.4 or DPBS solution at concentrations of 0.05, 0.1, 0.5 or 1 mg/ml depending on dose, species and administration volume.
Female Göttingen minipigs were dosed 0.05 mg/kg intravenously (i.v.) or 0.1 mg/kg subcutaneously (s.c.). Blood samples were collected at 0 h and after 0.083, 0.25, 0.5, 1, 2, 4, 8, 24, 32, 48, 56, 72, 80, and 96 h post i.v. application and at 0 h and after 0.25, 0.5, 1, 2, 4, 8, 24, 32, 48, 56, 72, 80, and 96 h post s.c. application, respectively. Plasma samples were analysed after protein precipitation via liquid chromatography mass spectrometry (LC/MS). PK parameters and half-life were calculated using Phoenix-WinNonlin 8.1 using a non-compartmental model and linear trapezoidal interpolation calculation.
Pharmacokinetic profiles were determined as described in Methods.

In the case of `CC[C@H](C)[C@H](NC(=O)[C@H](CCC(=O)O)NC(=O)[C@H](CCC(=O)O)NC(=O)[C@H](CCCCNC(=O)COCCOCCNC(=O)COCCOCCNC(=O)CC[C@H](NC(=O)CCCCCCCCCCCCCCCCC(=O)O)C(=O)O)NC(=O)C(C)(C)NC(=O)[C@@H](NC(=O)[C@H](CO)NC(=O)[C@H](CC(C)C)NC(=O)[C@H](CC(=O)O)NC(=O)[C@H](CO)NC(=O)[C@@H](NC(=O)[C@H](Cc1ccccc1)NC(=O)[C@@H](NC(=O)CNC(=O)[C@H](CCC(=O)O)NC(=O)C(C)(C)NC(=O)[C@@H](N)Cc1ccc(O)cc1)[C@@H](C)O)[C@@H](C)CC)[C@@H](C)CC)C(=O)N[C@@H](Cc1c[nH]cn1)C(=O)N[C@@H](CCC(N)=O)C(=O)NC(C)(C)C(=O)N[C@@H](CCC(=O)O)C(=O)N[C@@H](Cc1ccccc1)C(=O)N[C@H](C(=O)N[C@@H](CCC(=O)O)C(=O)N[C@@H](Cc1c[nH]c2ccccc12)C(=O)N[C@@H](CC(C)C)C(=O)N[C@@H](CC(C)C)C(=O)N[C@@H](C)C(=O)N[C@@H](CCC(N)=O)C(=O)NCC(=O)N1CCC[C@H]1C(=O)N[C@@H](CO)C(=O)N[C@@H](CO)C(=O)NCC(=O)N[C@@H](C)C(=O)N1CCC[C@H]1C(=O)N1CCC[C@H]1C(=O)N1CCC[C@H]1C(=O)N[C@@H](CO)C(N)=O)[C@@H](C)CC` [SEQ ID NO: 19, H2N-Y-Aib-E-G-T-F-I-S-D-L-S-I-Aib-K[{AEEA}2-gGlu-C18OH]-E-E-I-H-Q-Aib-E-F-I-E-W-L-L-A-Q-G-P-S-S-G-A-P-P-P-S-NH2] (H-Y[Aib]EGTFISDLSI[Aib]K([AEEA-AEEA-γGlu-C18 diacid])EEIHQ[Aib]EFIEWLLAQGPSSGAPPPS-NH2), the AUC(0-t) (iv, 0.05 mg/kg i.v.) was 50500 ng·h/mL, the Cmax (iv, 0.05 mg/kg i.v.) was 1980 ng/mL and the clearance (iv, 0.05 mg/kg i.v.) was 15.4 mL/day/kg. It also gave a half-life (iv, 0.05 mg/kg i.v.) of 64.1 h, an AUC(0-t) (sc, 0.1 mg/kg s.c.) of 56800 ng·h/mL and a Cmax (sc, 0.1 mg/kg s.c.) of 723 ng/mL. The bioavailability (sc, 0.1 mg/kg s.c.) was 56%.
